Measured values taken from ChEMBL document CHEMBL1201862, “PubChem BioAssay data set” (2004).
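Grown in 96-well plates, cells were treated for 48 hours with each compound at five concentrations. Insufficient inhibition: endpoint recorded as highest concentration tested. GI50 = concentration required for 50% inhibition of growth.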 Activity calls are given as the source filed them. No stated cut-off is given here; in the data, active = GI50 up to about 1.1 µM and inactive = higher.

Key:
Test in all cases: NCI-60 cell line screen, 48 h
[1] = system: ACHN
[2] = system: HCC 2998
[3] = system: SNB-19
[4] = system: SF-295
[5] = system: UACC-62
[6] = system: RXF 393
[7] = system: UO-31
[8] = system: SK-MEL-28
[9] = system: HCT-15
[10] = system: RPMI-8226
[11] = system: SF-539
[12] = system: SK-OV-3
[13] = system: EKVX
[14] = system: SNB-75
[15] = system: SK-MEL-2
[16] = system: HOP-92
[17] = system: CAKI-1
[18] = system: NCI-H460

SMILES	GI50 [1]	GI50 [2]	GI50 [3]	GI50 [4]	GI50 [5]	GI50 [6]	GI50 [7]	GI50 [8]	GI50 [9]	GI50 [10]	GI50 [11]	GI50 [12]	GI50 [13]	GI50 [14]	GI50 [15]	GI50 [16]	GI50 [17]	GI50 [18]
O=C(NC1CCCCC1)NS(=O)(=O)c1ccc2c(c1)CCC2 [GLYHEXAMIDE]	> 100 µM (inactive)	> 100 µM (inactive)	> 100 µM (inactive)	> 100 µM (inactive)	> 100 µM (inactive)	> 100 µM (inactive)	> 100 µM (inactive)	> 100 µM (inactive)	> 100 µM	> 100 µM (inactive)	> 100 µM (inactive)	> 100 µM (inactive)	> 100 µM (inactive)	> 100 µM (inactive)	> 100 µM (inactive)	> 100 µM (inactive)	–	–
O=S(O)CCCSSCCCCSSCCCS(=O)O	> 100 µM (inactive)	> 100 µM (inactive)	> 100 µM (inactive)	> 100 µM (inactive)	> 100 µM (inactive)	> 100 µM (inactive)	> 100 µM (inactive)	> 100 µM (inactive)	> 100 µM	–	> 100 µM (inactive)	> 100 µM (inactive)	34.4 µM (inactive)	66.8 µM (inactive)	> 100 µM (inactive)	–	> 100 µM (inactive)	> 100 µM (inactive)
CCOc1ccc(N2C(=O)C3c4[nH]c5ccccc5c4C4CCC(C(C)(C)C)CC4C3C2=O)cc1 (stereo unspecified)	57.5 µM (inactive)	28.8 µM (inactive)	> 100 µM (inactive)	> 100 µM (inactive)	> 100 µM (inactive)	21.8 µM (inactive)	69.2 µM (inactive)	> 100 µM (inactive)	> 100 µM	> 100 µM (inactive)	> 100 µM (inactive)	> 100 µM (inactive)	> 100 µM (inactive)	> 100 µM (inactive)	–	> 100 µM (inactive)	–	–
CCCCCCCCCCCCC(SCCNC(=O)CCNC(=O)C(O)C(C)(C)COP(=O)(O)OP(=O)(O)OCC1OC(n2cnc3c(N)ncnc32)C(O)C1OP(=O)(O)O)C(=O)NCC(N)=O (stereo unspecified)	56.6 µM (inactive)	> 100 µM (inactive)	66.7 µM (inactive)	> 100 µM (inactive)	> 100 µM (inactive)	36 µM (inactive)	64.9 µM (inactive)	> 100 µM (inactive)	> 100 µM	–	52.2 µM (inactive)	18.6 µM (inactive)	> 100 µM (inactive)	2.6 µM (inactive)	> 100 µM (inactive)	38.3 µM (inactive)	–	91.6 µM (inactive)
O=C1C[C@@H]2C(COC(=O)c3ccccc3)N(OCc3ccccc3)C[C@@H]2O1 (stereo partly specified)	> 100 µM (inactive)	> 100 µM (inactive)	> 100 µM (inactive)	–	> 100 µM (inactive)	> 100 µM (inactive)	> 100 µM (inactive)	> 100 µM (inactive)	> 100 µM	–	> 100 µM (inactive)	> 100 µM (inactive)	> 100 µM (inactive)	> 100 µM (inactive)	> 100 µM (inactive)	–	–	> 100 µM (inactive)
Oc1ccc2c(c1)CC[N+]1=C2CCC2CCCC21 (stereo unspecified) [QUINDONIUM BROMIDE]	> 100 µM (inactive)	> 100 µM (inactive)	> 100 µM (inactive)	> 100 µM (inactive)	> 100 µM (inactive)	> 100 µM (inactive)	> 100 µM (inactive)	> 100 µM (inactive)	> 100 µM	–	> 100 µM (inactive)	> 100 µM (inactive)	> 100 µM (inactive)	> 100 µM (inactive)	> 100 µM (inactive)	> 100 µM (inactive)	> 100 µM (inactive)	> 100 µM (inactive)
N#CCCN(CCC#N)c1ccc(/C=N\c2nc(-c3ccccc3)cs2)cc1	> 100 µM (inactive)	–	> 100 µM (inactive)	45.7 µM (inactive)	> 100 µM (inactive)	39.7 µM (inactive)	> 100 µM (inactive)	> 100 µM (inactive)	> 100 µM	> 100 µM (inactive)	> 100 µM (inactive)	> 100 µM (inactive)	> 100 µM (inactive)	29.8 µM (inactive)	> 100 µM (inactive)	50.8 µM (inactive)	> 100 µM (inactive)	> 100 µM (inactive)
O=C(N/N=C1/C(=O)N(c2ccc(Cl)cc2Cl)C(=O)C(=O)C1c1nc2ccccc2o1)c1ccccc1O (stereo unspecified)	37.5 µM (inactive)	–	49.7 µM (inactive)	–	20.4 µM (inactive)	–	–	29.6 µM (inactive)	37.8 µM	43.4 µM (inactive)	29.4 µM (inactive)	33 µM (inactive)	45.7 µM (inactive)	43.3 µM (inactive)	41.3 µM (inactive)	30.5 µM (inactive)	34.8 µM (inactive)	44.8 µM (inactive)
COC(=O)C1(C)C=C(Nc2ccccc2)C(=O)N1c1ccccc1 (stereo unspecified)	> 100 µM (inactive)	> 100 µM (inactive)	> 100 µM (inactive)	> 100 µM (inactive)	99.5 µM (inactive)	> 100 µM (inactive)	58.3 µM (inactive)	> 100 µM (inactive)	–	> 100 µM (inactive)	> 100 µM (inactive)	> 100 µM (inactive)	> 100 µM (inactive)	–	> 100 µM (inactive)	54.1 µM (inactive)	> 100 µM (inactive)	> 100 µM (inactive)
